Measurements from US20140162991A1, “TESTOSTERONE-ANASTROZOLE (T + A) C[…] IN THE NEO-ADJUVANT, LOCAL AND SYSTEMIC THERAPY OF NEWLY DIAGNOSED, […] BREAST CANCER” (priority 2012, published 2014).

Test: adverse effects and systemic symptoms in treated patients
Conditions: pharmacologic doses of testosterone

C[C@]12CC[C@H]3[C@@H](CCC4=CC(=O)CC[C@@]43C)[C@@H]1CC[C@@H]2O [testosterone]
adverse events: not associated with adverse events
androgenic side effect (applicant's patients): slight increase in facial hair
